# Measured values taken from a melting point compilation (Tetko et al.).
row,melting point [°C],SMILES
1,45.5,CN(C)C(=O)OC1=CC(=O)CC(C)(C)C1
2,273 to 276,O=[N+]([O-])c1ccc(N/N=C2\Cc3c2ccc2ccccc32)c([N+](=O)[O-])c1
3,48 to 51,CCOC(=O)c1cc(-c2cccs2)on1
4,58,O=C=Nc1ccc2sccc2c1
5,200 to 203,Clc1ccc(-c2csc3nc4ccccc4n23)cc1
6,177 to 178,CC1=CCC(=O)Nc2c1cnn2-c1ccc(Cl)cc1
7,147 to 149,c1ccc2c(c1)OCCOCCNCCOCCO2
8,115,O=C(c1ccc2ccccc2c1)c1noc(-c2cccc3ccccc23)c1S(=O)(=O)c1ccccc1
9,136 to 138,Cc1cccc(C)c1C(N)=O
10,77,CN(C)c1ccc(O)cc1
11,126 to 127,CCC1C(=CC(=O)CI)N(C)C(C)(C)N1O (configuration not stated)
12,53.5,Cc1cccc2ccc3ccccc3c12
13,179 to 180,O=Cc1c[nH]c2cccc(Br)c12
14,81,COC(=O)c1cc([N+](=O)[O-])ccc1Br
15,-43.5,Clc1ccncc1
16,221,COc1ccccc1C1Nn2c(nnc2-c2cccnc2)S1 (configuration not stated)
17,120 to 121,COC(=O)C1(C(=O)OC)Cc2ccc(C)cc2C(=O)O1
18,49 to 58,OCC1Cc2ccccc2N1 (configuration not stated)
19,57 to 61,Sc1cccc(Cl)c1Cl
20,62.5,NCCCCCCCCCCN
21,72 to 78,O=C(NCC[C@H](O)C(=O)O)OCc1ccccc1
22,144 to 145,COc1cc([N+](=O)[O-])c(OC)cc1Cl

row,melting point [°C],SMILES
1,217 to 219,CC(=O)Nc1nn(C(C)=O)c2ncccc12
2,110,CN1CCN(C2=Nc3ccccc3Oc3ccc(Cl)cc32)CC1
3,37 to 39,c1ccc(-c2cnco2)cc1
4,138 to 140,Cn1nccc1-c1cccc(C(=O)O)c1
5,75,c1cnc2cccnc2c1
6,146,NCC(O)COc1ccccc1 (configuration not stated)
7,98,c1cnc(N2CCN(Cc3ccc4c(c3)OCO4)CC2)nc1
8,228,Cc1cc(C)n2nc(N)c(/N=N/c3ccncc3)c2n1
9,134 to 138,O=C1OC(=O)c2ncccc21
10,214,Nc1c(C=Cc2ccccc2)ccc2c1C(=O)c1ccccc1C2=O
11,56,O=Cc1cccc(OCc2ccccc2)c1
12,54 to 56,O=Cc1cccc(Cn2cncn2)c1
13,141,Nn1c(S)nnc1C(F)(F)F
14,145,COc1ccc(C2(C)CCc3oc4ccccc4c3-c3oc(C)cc32)cc1 (configuration not stated)
15,-79,SCCCS
16,146,CC1CCC(C)(COC(=O)C2C(=O)C3(C)CCC2C3(C)C)C1(C)C (configuration not stated)
17,52 to 56,CCCCC[C@H]1CC[C@H](C(=O)O)CC1
18,63 to 66,CC(=O)c1ccc(OCCCCCBr)cc1O
19,115,O=C(O)C(O)c1ccccc1F (configuration not stated)
20,185,O=[N+]([O-])c1cc(C=NNc2ccccc2)ccc1C=NNc1ccccc1
21,148,CCCOC(=O)c1cc(O)c(O)c(O)c1
22,234,c1ccc2c(c1)cc1c3ccccc3c3cccc4ccc2c1c43

row,melting point [°C],SMILES
1,85,CC(Cc1ccccc1)=NNc1ccccc1
2,151,O=C(Nn1cnnc1)C(F)(F)C(F)(F)C(F)(F)C(F)(F)C(F)(F)C(F)(F)C(F)(F)C(F)(F)F
3,87 to 89,COC(=O)C1=C(N)CCN(Cc2ccccc2)C1
4,92 to 97,CCCCC(O)C(O)CO (configuration not stated)
5,150 to 153,CCSc1sc(C#N)c2c1C(=O)CC(C)(C)C2
6,209 to 212,O=C(O)C=CC(=O)Nc1ccc(F)cc1
7,-31,CC(=O)OCCOC(C)=O
8,89 to 90,Cn1nc2ccccc2c1C(=O)Cl
9,223 to 226,COc1cc2c(cc1OC)C(=S)NCC2
10,163,O=C(O)CCC(=O)c1ccc(C2CCCCC2)c(Cl)c1
11,129,CC(=O)Oc1c[nH]c2ccccc12
12,300,CC(C)(C)c1cc2c(O)c(c1)Cc1cc(C(C)(C)C)cc(c1O)Cc1cc(C(C)(C)C)cc(c1O)Cc1cc(C(C)(C)C)cc(c1O)C2
13,204 to 205,Cc1nc2ccccc2c(C(=O)O)c1N
14,18,CCCCCCC=CCC(=O)O
15,-15,NCCCN1CCOCC1
16,123,CC(=O)C(C)(CCC(=O)O)CCC(=O)O
17,93,CN(C)c1ccc(/C=C/C(=O)CCc2ccccc2)cc1
18,95,N#Cc1ccc2ccccc2n1
19,107 to 109,CCCCc1ccc(NC(C)=O)cc1
20,212,O=C(O)c1ccc(Br)c(F)c1
21,-69,C=C(C)C(C)(C)CC
22,264 to 265,OCc1c(Br)c(Br)c(Br)c(Br)c1Br

row,melting point [°C],SMILES
1,31,O=S(=O)(Cl)c1ccc(C(F)(F)F)cc1
2,196,CSc1ccccc1C(=O)N(NC(=O)c1ccccc1)C(C)(C)C
3,240,Cn1c(=O)c(C2=NNC(=O)C2=NNc2cccc(Br)c2)c(O)c2ccccc21
4,156,COc1ccc(C(=O)c2noc(-c3ccc(C)cc3)c2S(=O)(=O)c2ccccc2)cc1
5,235,CN1COCc2c1ccc1cc3ccc(N)c(CO)c3nc21
6,8.3,O=[N+]([O-])c1cc(Cl)ccc1F
7,203,Cc1nn(-c2ccccc2)nc1C(=O)O
8,72,CC(=O)OC(OC(C)=O)c1cccc([N+](=O)[O-])c1
9,47,c1ccc(P(CCCCCP(c2ccccc2)c2ccccc2)c2ccccc2)cc1
10,350,Oc1ncnc2[nH]ncc12
11,240 to 243,OC1CC(c2ccccc2)NC2(CCCC2)C1 (configuration not stated)
12,172,CC(=O)OC(OC(C)=O)c1ccc2c(c1)C(=O)c1c(Cl)c(Cl)c(Cl)c(Cl)c1C2=O
13,118 to 122,Nc1ccccc1S(=O)(=O)c1ccccc1
14,-20,CCc1cccc(C(C)=O)c1
15,104,COC(=O)C1(S(=O)(=O)c2ccc(Br)cc2)CCCC1
16,96 to 98,Cc1cc(Oc2ccc(N)cn2)cc(C)c1Cl
17,166 to 169,COc1cc(C(=O)O)c([N+](=O)[O-])c(OC)c1OC
18,279,CC1(C)CC(=O)C2=C(C1)Nc1c(ccc3ccccc13)C2c1ccc(F)cc1 (configuration not stated)
19,322,CC1(C)OC(=O)C(=Cc2cccc([N+](=O)[O-])c2)C(=O)O1

row,SMILES,melting point [°C]
1,O=NN(c1ccccc1)c1ccccc1,66.5
2,N#Cc1ccc(N2N=N2)cc1,70
3,c1ccc2c(c1)Sc1ccccc1N2CC1CN2CCC1CC2 (configuration not stated),130
4,Brc1ccc(Oc2cc(Br)ccc2Br)c(Br)c1,< 20
5,N=C(N)NOCCC(N)C(=O)O (configuration not stated),184
6,C[Si](Cn1cncn1)(c1ccc(F)cc1)c1ccc(F)cc1,54
7,N#CC#N,-27.9
